Test results: US7118895B2, “Process for producing aglycon by using diglycosidase and flavor-improved food containing the aglycon and converting agent to be used in the process” (Amano Enzyme Inc., priority 2000, dated 2006)

Test system: Crude diglycosidase
Assay: Examination of temperature in the conversion into isoflavone aglycons by diglycosidase using soybean materials
Type: biochemical, Penicillium multicolor IAM7153
Parameters: Decomposition efficiency of glycitin family in roasted soy flour / Decomposition efficiency of daidzin family in roasted soy flour / Decomposition efficiency of genistin family in soymilk / Decomposition efficiency of daidzin family in soymilk / Decomposition efficiency of glycitin family in defatted soybean / Decomposition efficiency of daidzin family in defatted soybean: concentration or dose not given beside the values
How it was run: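 Temperature series (30-80° C.) of crude diglycosidase, diluted to 1.88 AU/mL in 20 mM acetate pH 4.0, acting on roasted soy flour, soymilk, defatted soybean or soy protein concentrate. Samples quenched with ethanol after 0-6 h, centrifuged, filtered and analyzed by HPLC for glycosides versus aglycons.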

[1] = 55° C., heat treatment of enzyme no, reaction time 6 h
[2] = 55° C., heat treatment of enzyme yes, reaction time 6 h
[3] = 55 °C, heat treatment of enzyme: no, 0 h
[4] = 55 °C, heat treatment of enzyme: no, 1 h
[5] = 55 °C, heat treatment of enzyme: no, 3 h
[6] = 55 °C, heat treatment of enzyme: no, 6 h
[7] = 55 °C, heat treatment of enzyme: yes, 6 h
[8] = 65° C., heat treatment of enzyme no, reaction time 0 h
[9] = 65° C., heat treatment of enzyme no, reaction time 1 h
[10] = 65° C., heat treatment of enzyme no, reaction time 3 h
[11] = 65° C., heat treatment of enzyme no, reaction time 6 h
[12] = 65° C., heat treatment of enzyme yes, reaction time 6 h
[13] = 65 °C, heat treatment of enzyme: no, 0 h
[14] = 65 °C, heat treatment of enzyme: no, 1 h
[15] = 65 °C, heat treatment of enzyme: no, 3 h
[16] = 65 °C, heat treatment of enzyme: no, 6 h
[17] = 65 °C, heat treatment of enzyme: yes, 6 h
[18] = 80° C., heat treatment of enzyme no, reaction time 0 h
[19] = 80° C., heat treatment of enzyme no, reaction time 1 h
[20] = 80° C., heat treatment of enzyme no, reaction time 3 h
[21] = 80° C., heat treatment of enzyme no, reaction time 6 h
[22] = 80° C., heat treatment of enzyme yes, reaction time 6 h
[23] = 80 °C, heat treatment of enzyme: no, 0 h
[24] = 80 °C, heat treatment of enzyme: no, 1 h
[25] = 80 °C, heat treatment of enzyme: no, 3 h
[26] = 80 °C, heat treatment of enzyme: no, 6 h
[27] = 80 °C, heat treatment of enzyme: yes, 6 h

## CC(=O)OC[C@H]1O[C@@H](Oc2ccc3c(=O)c(-c4ccc(O)cc4)coc3c2)[C@H](O)[C@@H](O)[C@@H]1O [acetyldaidzin, 6″-O-acetyldaidzin]
[1]
  Decomposition efficiency of daidzin family in concentrated soybean protein: 37.7%
  Decomposition efficiency of daidzin family in defatted soybean: not detected
[2]
  Decomposition efficiency of daidzin family in concentrated soybean protein: 42.3%
  Decomposition efficiency of daidzin family in defatted soybean: not detected
[3]
  Decomposition efficiency of daidzin family in roasted soy flour: 47.5%
  Decomposition efficiency of daidzin family in soymilk: not detected
[4]
  Decomposition efficiency of daidzin family in roasted soy flour: 42.8%
  Decomposition efficiency of daidzin family in soymilk: not detected
[5]
  Decomposition efficiency of daidzin family in roasted soy flour: 32.5%
  Decomposition efficiency of daidzin family in soymilk: not detected
[6]
  Decomposition efficiency of daidzin family in roasted soy flour: 26.7%
  Decomposition efficiency of daidzin family in soymilk: not detected
[7]
  Decomposition efficiency of daidzin family in roasted soy flour: 43.6%
  Decomposition efficiency of daidzin family in soymilk: not detected
[8]
  Decomposition efficiency of daidzin family in concentrated soybean protein: 44.6%
  Decomposition efficiency of daidzin family in defatted soybean: not detected
[9]
  Decomposition efficiency of daidzin family in concentrated soybean protein: 44.3%
  Decomposition efficiency of daidzin family in defatted soybean: not detected
[10]
  Decomposition efficiency of daidzin family in concentrated soybean protein: 42.9%
  Decomposition efficiency of daidzin family in defatted soybean: not detected
[11]
  Decomposition efficiency of daidzin family in concentrated soybean protein: 41.6%
  Decomposition efficiency of daidzin family in defatted soybean: not detected
[12]
  Decomposition efficiency of daidzin family in concentrated soybean protein: 43.6%
  Decomposition efficiency of daidzin family in defatted soybean: not detected
[13]
  Decomposition efficiency of daidzin family in roasted soy flour: 47.8%
  Decomposition efficiency of daidzin family in soymilk: not detected
[14]
  Decomposition efficiency of daidzin family in roasted soy flour: 43.7%
  Decomposition efficiency of daidzin family in soymilk: not detected
[15]
  Decomposition efficiency of daidzin family in roasted soy flour: 40.2%
  Decomposition efficiency of daidzin family in soymilk: not detected
[16]
  Decomposition efficiency of daidzin family in roasted soy flour: 37.8%
  Decomposition efficiency of daidzin family in soymilk: not detected
[17]
  Decomposition efficiency of daidzin family in roasted soy flour: 46.1%
  Decomposition efficiency of daidzin family in soymilk: not detected
[18]
  Decomposition efficiency of daidzin family in concentrated soybean protein: 44.5%
  Decomposition efficiency of daidzin family in defatted soybean: not detected
[19]
  Decomposition efficiency of daidzin family in concentrated soybean protein: 45.5%
  Decomposition efficiency of daidzin family in defatted soybean: not detected
[20]
  Decomposition efficiency of daidzin family in concentrated soybean protein: 44.7%
  Decomposition efficiency of daidzin family in defatted soybean: not detected
[21]
  Decomposition efficiency of daidzin family in concentrated soybean protein: 43.8%
  Decomposition efficiency of daidzin family in defatted soybean: not detected
[22]
  Decomposition efficiency of daidzin family in concentrated soybean protein: 42.3%
  Decomposition efficiency of daidzin family in defatted soybean: not detected
[23]
  Decomposition efficiency of daidzin family in roasted soy flour: 47.7%
  Decomposition efficiency of daidzin family in soymilk: not detected
[24]
  Decomposition efficiency of daidzin family in roasted soy flour: 49.1%
  Decomposition efficiency of daidzin family in soymilk: not detected
[25]
  Decomposition efficiency of daidzin family in roasted soy flour: 47.9%
  Decomposition efficiency of daidzin family in soymilk: not detected
[26]
  Decomposition efficiency of daidzin family in roasted soy flour: 46.7%
  Decomposition efficiency of daidzin family in soymilk: not detected
[27]
  Decomposition efficiency of daidzin family in roasted soy flour: 45.0%
  Decomposition efficiency of daidzin family in soymilk: not detected
